The values that follow come from patent US20070191402A1, “Method of searching substrate having antidiabetic activity” (KYOWA HAKKO KOGYO CO., LTD., priority 2002, published 2007).

In this assay the test system is pancreatic β cell (MIN6 cell). Description: Inhibition of binding of [3H]-labeled Compound 16 to pancreatic β cell. Further details: species or system murine. Particulars: test compound 1 μmol/l; 10 nmol/l [3H]-labeled Compound 16; MIN6 cell, 4° C. The protocol:
MIN6 cell cultured to almost confluence in a 24-well plate for cell culture (manufactured by Corning) was washed twice with KRH buffer (119 mmol/l NaCl, 4.74 mmol/KCl, 2.54 mmol/l calcium chloride (CaCl2), 1.19 mmol/l magnesium sulfate (MgSO4), 1.19 mmol/l potassium dihydrogen phosphate (KH2PO4), 10 mmol/l HEPES, 2 mmol/l glucose, 0.1 w/v % bovine serum albumin (BSA), pH 7.3). Subsequently, the KRH buffer was added at 1 ml per well, for preincubation at 37° C. for 45 minutes. After preincubation, the supernatant was discarded, and 0.15 ml of the KRH buffer, […] at 4° C. for one hour or longer until the reaction reached equilibrium. Subsequently, the cell was washed twice using the KRH buffer. The KRH buffer was added at 2 ml per well, which was then left to stand at room temperature for 20 minutes. The cell was again washed twice by using the KRH buffer. The radioactivity remaining in each well was counted with a liquid scintillation counter to determine the binding amount.
The difference between the binding amount of the [^3H]-labeled Compound 16 (total binding amount) under conditions with no addition of any test compound and the binding amount of the [^3H]-labeled Compound 16 (non-specific binding amount) under conditions in the presence of the Compound 16 at 10 μmol/l was defined as specific binding amount.
According to the method described in Example 5, a substance having anti-diabetic activity was screened for, using the inhibitory activity of the binding between pancreatic β cells and [^3H]-labeled Compound 16. A tested substance was dissolved in dimethylsulfoxide and then added to give a final concentration of 1 μmol/l. The radioactivity with addition of the unlabeled Compound 16 was defined as the non-specific binding amount and the radioactivity without addition of the unlabeled Compound 16 was defined as the total binding amount, and then the individual specific binding amounts were calculated by the method described in Example 6. Using the following formula, the binding inhibition ratio was determined. [formula]

With `CCCN1C(=O)N2C[C@@H](Cc3ccccc3)N=C2c2[nH]c(C3CCCC3)nc21` [compound 16], the “Binding inhibitory activity (%)” value was 100.0%.
